Laboratory results from patent US20150266878A1, “NOVEL BI-RING PHENYL-PYRIDINES/PYRAZINES FOR THE TREATMENT OF CANCER” (HOFFMANN-LA ROCHE INC., priority 2012, published 2015).

Columns and labels:
AGS (gastric cancer) = test: In vitro cell proliferation assay (CCK-8), AGS; assay type: cell-based; conditions: Homo sapiens, AGS cells, 72 hours
Experimental: (§1) In Vitro Cell Proliferation Assay:
(§2) Cells were seeded on 96-well plates at 5×10^3 cells per well and precultured for 24 hours. The cells were treated with serial diluted compounds and cultured for 72 hours. Then all media was discarded and after that, 100 μL 1:10 (v/v) Cell Counting Kit-8 (CCK-8)-culture media solution was added to the wells. Plate was developed for 2 hours in an incubator, and the absorbance was measured at 450 nm wavelengths with SpectraMAX190 (MDS, Sunnyvale, Calif.). The inhibition rate (IR) of the tested compounds was determined with following formula: IR (%)=(ODDMSO−ODcompound)/ODDMSO×100%. The concentration corresponding to 50% IR (IC50) was determined with plot curve of IR against tested compound concentrations with SoftMax Pro.

[1] = tested on: HCT116 (colorectal cancer); test: In vitro cell proliferation assay (CCK-8), HCT116; assay type: cell-based; conditions: Homo sapiens, HCT-116, HCT116 cells, 72 hours
Experimental: as §1, §2

[2] = tested on: SW-837 (colorectal cancer); test: In vitro cell proliferation assay (CCK-8), SW-837; assay type: cell-based; conditions: Homo sapiens, SW837, SW-837 cells, 72 hours
Experimental: as §1, §2

CDK8/Cyclin C = biological target: T1, CDK8/Cyclin C (Homo sapiens, UniProt P49336); test: CDK8/Cyclin C LANCE TR-FRET kinase assay; assay type: biochemical; conditions: CDK8/Cyclin C 10 nM, ATP 24 μM, Ulight-GS peptide 80 nM, 37° C. 30 mins
T1 construct: purchased Invitrogen PV4402
Source text: CDK8/Cyclin C LANCE TR-FRET Kinase Assay:
The biological activity of the compounds of the invention can be determined using the assay described below.
CDK8/Cyclin C protein was obtained from Invitrogen, cat #PV4402. ULight-Glycogen Synthase (Ulight-GS) peptide with sequence PASVPPSPSLSRHSSPHQ(pS)ED, and Europium-anti-phospho Glycogen Synthase (Ser641) [Eu-anti-P-GS (Ser641)] were obtained from Perkin Elmer, cat #TRF0131-M and cat #TRF0220. Adenosine-5′-triphosphate (ATP) was obtained from Invitrogen, cat #PV3227.
A mixture of (1) a compound of formula I, (2) substrate [Ulight-GS peptide (80 nM) and ATP (24 μM)], and (3) CDK8/Cyclin C (10 nM) in reaction buffer (50 mM Hepes, pH7.0, 10 mM MgCl2, 1 mM EGTA, 0.2 mg/mL BSA, 0.8 mM DTT) were incubated at 37° C. for 30 mins. Then, [Eu-anti-P-GS (Ser641)] (1.5 nM) was added. Following incubation at room temperature for 30 mins, the TR-FRET signals were detected using Envision reader (Ex 340 nm, Em 615 nm and 665 nm) from Perkin Elmer. The reactivity in percentage of inhibition or dose response was analyzed with GraphPad Prism 5 (GraphPad Software).

T1 sequence (P49336 whole entry): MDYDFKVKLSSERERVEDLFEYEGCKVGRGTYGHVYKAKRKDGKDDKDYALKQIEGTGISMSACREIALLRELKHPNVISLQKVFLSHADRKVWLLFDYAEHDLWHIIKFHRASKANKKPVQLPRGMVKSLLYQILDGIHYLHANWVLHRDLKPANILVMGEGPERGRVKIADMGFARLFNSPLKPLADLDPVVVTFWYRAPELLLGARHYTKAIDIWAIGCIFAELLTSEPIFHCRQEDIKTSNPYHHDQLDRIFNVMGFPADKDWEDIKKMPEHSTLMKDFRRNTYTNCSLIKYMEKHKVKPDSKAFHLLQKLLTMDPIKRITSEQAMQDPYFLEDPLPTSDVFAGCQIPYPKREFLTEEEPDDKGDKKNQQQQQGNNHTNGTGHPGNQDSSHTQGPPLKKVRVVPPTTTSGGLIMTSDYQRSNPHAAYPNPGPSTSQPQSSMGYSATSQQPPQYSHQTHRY
T1 sequence (P24863 whole entry partner): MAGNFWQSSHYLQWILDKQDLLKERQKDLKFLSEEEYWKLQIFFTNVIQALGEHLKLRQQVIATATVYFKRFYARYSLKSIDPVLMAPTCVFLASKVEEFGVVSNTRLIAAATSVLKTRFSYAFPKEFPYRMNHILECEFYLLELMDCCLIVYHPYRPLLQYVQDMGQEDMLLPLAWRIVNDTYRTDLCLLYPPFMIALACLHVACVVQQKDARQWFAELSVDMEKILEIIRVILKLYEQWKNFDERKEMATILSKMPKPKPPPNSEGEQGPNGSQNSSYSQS

SMILES	IC50 (CDK8/Cyclin C) [nM]	also measured
NC(=O)C(Nc1cncc(-c2cc3c(cc2F)NC(=O)CC3)c1)c1ccccc1 (centres unmarked) [Example 34, 2-[5-(7-Fluoro-2-oxo-1,2,3,4-tetrahydro-quinolin-6-yl)-pyridin-3-ylamino]-2-phenyl-acetamide]	1400	–
CC(=O)NC[C@H](Nc1cncc(-c2ccc3[nH]ncc3c2)c1)c1ccccc1 [Example 40, N-{(R)-2-[5-(1H-Indazol-5-yl)-pyridin-3-ylamino]-2-phenyl-ethyl}-acetamide]	1.8	–
CS(=O)(=O)NC[C@H](Nc1cncc(-c2ccc3[nH]ncc3c2)c1)c1ccccc1 [Example 41, N-{(R)-2-[5-(1H-Indazol-5-yl)-pyridin-3-ylamino]-2-phenyl-ethyl}-methanesulfonamide]	0.3	–
NC(=O)C(Nc1cncc(-c2ccc3[nH]nc(F)c3c2)c1)c1ccccc1 (centres unmarked) [Example 42, 2-[5-(3-Fluoro-1H-indazol-5-yl)-pyridin-3-ylamino]-2-phenyl-acetamide]	3.5	–
CCC(=O)NC[C@H](Nc1cncc(-c2ccc3[nH]nc(F)c3c2)c1)c1ccccc1 [Example 43, N-{(R)-2-[5-(3-Fluoro-1H-indazol-5-yl)-pyridin-3-ylamino]-2-phenyl-ethyl}-propionamide]	2.3	–
O=C(CO)NC[C@H](Nc1cncc(-c2ccc3[nH]nc(F)c3c2)c1)c1ccccc1 [Example 46, N-{(R)-2-[5-(3-Fluoro-1H-indazol-5-yl)-pyridin-3-ylamino]-2-phenyl-ethyl}-2-hydroxy-acetamide]	2.4	–
OCCNC[C@H](Nc1cncc(-c2ccc3[nH]nc(F)c3c2)c1)c1ccccc1 [Example 47, 2-{(R)-2-[5-(3-Fluoro-1H-indazol-5-yl)-pyridin-3-ylamino]-2-phenyl-ethylamino}-ethanol]	15	–
Cc1n[nH]c2ccc(-c3cncc(NC(CNS(C)(=O)=O)c4ccccc4)c3)cc12 (centres unmarked) [Example 50, N-{2-[5-(3-Methyl-1H-indazol-5-yl)-pyridin-3-ylamino]-2-phenyl-ethyl}-methanesulfonamide]	2.8	–
Cc1n[nH]c2ccc(-c3cncc(N[C@@H](CNS(C)(=O)=O)c4ccccc4)c3)cc12 [Example 52, N-{(R)-2-[5-(3-Methyl-1H-indazol-5-yl)-pyridin-3-ylamino]-2-phenyl-ethyl}-methanesulfonamide]	0.8	–
COCCS(=O)(=O)NC[C@H](Nc1cncc(-c2ccc3[nH]nc(C)c3c2)c1)c1ccccc1 [Example 53, 2-Methoxy-ethanesulfonic acid {(R)-2-[5-(3-methyl-1H-indazol-5-yl)-pyridin-3-ylamino]-2-phenyl-ethyl}-amide]	1.7	–
Cc1n[nH]c2ccc(-c3cncc(N[C@@H](CNC(=O)CO)c4ccccc4)c3)cc12 [Example 54, 2-Hydroxy-N-{(R)-2-[5-(3-methyl-1H-indazol-5-yl)-pyridin-3-ylamino]-2-phenyl-ethyl}-acetamide]	1.2	–
COCCNC[C@H](Nc1cncc(-c2ccc3[nH]nc(C)c3c2)c1)c1ccccc1 [Example 55, (R)-N^2-(2-Methoxy-ethyl)-N^1-[5-(3-methyl-1H-indazol-5-yl)-pyridin-3-yl]-1-phenyl-ethane-1,2-diamine]	9.5	–
Cc1n[nH]c2ccc(-c3cncc(N[C@@H](CNCCO)c4ccccc4)c3)cc12 [Example 56, 2-{(R)-2-[5-(3-Methyl-1H-indazol-5-yl)-pyridin-3-ylamino]-2-phenyl-ethylamino}-ethanol]	5	–
Cc1n[nH]c2ccc(-c3cncc(N[C@@H](CNC(=O)C4CCCCC4)c4ccccc4)c3)cc12 [Example 57, Cyclohexanecarboxylic acid {(R)-2-[5-(3-methyl-1H-indazol-5-yl)-pyridin-3-ylamino]-2-phenyl-ethyl}-amide]	5.3	–
Cc1n[nH]c2ccc(-c3cncc(N[C@@H](CNC(=O)c4ccccc4)c4ccccc4)c3)cc12 [Example 58, N-{(R)-2-[5-(3-Methyl-1H-indazol-5-yl)-pyridin-3-ylamino]-2-phenyl-ethyl}-benzamide]	6	–
NC(=O)[C@H](Nc1cncc(-c2ccc3[nH]nc(Cl)c3c2)c1)c1ccccc1 [Example 59, (R)-2-[5-(3-Chloro-1H-indazol-5-yl)-pyridin-3-ylamino]-2-phenyl-acetamide]	2.3	–

More lines, main results first:

IC50 (CDK8/Cyclin C) [nM]	SMILES	also measured
3.5	O=C1Cc2cc(-c3cncc(N[C@@H](CO)c4ccccc4)c3)ccc2N1 [Example 1, 5-[5-((R)-2-Hydroxy-1-phenyl-ethylamino)-pyridin-3-yl]-1,3-dihydro-indol-2-one]	IC50 (AGS (gastric cancer)): 0.65 µM; IC50 [1]: 0.66 µM; IC50 [2]: 2.3 µM
0.2	OC[C@H](Nc1cncc(-c2ccc3[nH]ncc3c2)c1)c1ccccc1 [Example 16, (R)-2-[5-(1H-Indazol-5-yl)-pyridin-3-ylamino]-2-phenyl-ethanol]	IC50 (AGS (gastric cancer)): 0.033 µM; IC50 [1]: 0.037 µM; IC50 [2]: 0.091 µM
559	NC(=O)C(Nc1cncc(-c2ccc3c(c2)OCO3)c1)c1ccccc1 (centres unmarked) [Example 35, 2-(5-Benzo[1,3]dioxol-5-yl-pyridin-3-ylamino)-2-phenyl-acetamide]	–
2510	NC(=O)C(Nc1cncc(-c2ccc3c(c2)OCCO3)c1)c1ccccc1 (centres unmarked) [Example 36, 2-[5-(2,3-Dihydro-benzo[1,4]dioxin-6-yl)-pyridin-3-ylamino]-2-phenyl-acetamide]	–
3.4	NC(=O)C(Nc1cncc(-c2ccc3[nH]ncc3c2)c1)c1ccccc1 (centres unmarked) [Example 37, 2-[5-(1H-Indazol-5-yl)-pyridin-3-ylamino]-2-phenyl-acetamide]	–
0.9	NC(=O)[C@H](Nc1cncc(-c2ccc3[nH]ncc3c2)c1)c1ccccc1 [Example 38, (R)-2-[5-(1H-Indazol-5-yl)-pyridin-3-ylamino]-2-phenyl-acetamide]	–
8.8	NC(=O)[C@@H](Nc1cncc(-c2ccc3[nH]ncc3c2)c1)c1ccccc1 [Example 39, (S)-2-[5-(1H-indazol-5-yl)-pyridin-3-ylamino]-2-phenyl-acetamide]	–
3.1	CC(C)C(=O)NC[C@H](Nc1cncc(-c2ccc3[nH]nc(F)c3c2)c1)c1ccccc1 [Example 44, N-{(R)-2-[5-(3-Fluoro-1H-indazol-5-yl)-pyridin-3-ylamino]-2-phenyl-ethyl}-isobutyramide]	–
29.5	COCCNC[C@H](Nc1cncc(-c2ccc3[nH]nc(F)c3c2)c1)c1ccccc1 [Example 45, (R)-N^1-[5-(3-Fluoro-1H-indazol-5-yl)-pyridin-3-yl]-N^2-(2-methoxy-ethyl)-1-phenyl-ethane-1,2-diamine]	–
1.6	Cc1n[nH]c2ccc(-c3cncc(N[C@@H](C(N)=O)c4ccccc4)c3)cc12 [Example 48, (R)-2-[5-(3-Methyl-1H-indazol-5-yl)-pyridin-3-ylamino]-2-phenyl-acetamide]	–
4.2	Cc1n[nH]c2ccc(-c3cncc(N[C@H](C(N)=O)c4ccccc4)c3)cc12 [Example 49, (S)-2-[5-(3-Methyl-1H-indazol-5-yl)-pyridin-3-ylamino]-2-phenyl-acetamide]	–
2.1	Cc1n[nH]c2ccc(-c3cncc(N[C@@H](CNS(=O)(=O)C4CC4)c4ccccc4)c3)cc12 [Example 51, Cyclopropanesulfonic acid {(R)-2-[5-(3-methyl-1H-indazol-5-yl)-pyridin-3-ylamino]-2-phenyl-ethyl}-amide]	–
9.2	NC(=O)[C@@H](Nc1cncc(-c2ccc3[nH]nc(Cl)c3c2)c1)c1ccccc1 [Example 60, (S)-2-[5-(3-Chloro-1H-indazol-5-yl)-pyridin-3-ylamino]-2-phenyl-acetamide]	–
